In brackets after ≈: the same amount, converted by molar mass. Like-named read-outs stand apart in the source and are kept apart here.
How the values were obtained:
Acinetobacter baumanii = assay: Antimicrobial activity (MIC), serial dilution; assay type: cell-based
Procedure: (§1) The evaluation of antimicrobial efficacy was conducted through a serial dilution method to determine the minimum inhibitory concentrations (MICs) of isolated compounds against various Gram-positive bacteria (Bacillus subtilis (B. subtilis), Mycobacterium smegmatis (M. smegmatis), and Staphylococcus aureus), Gram-negative bacteria (Acinetobacter baumannii (A. baumannii), Chromobacterium violaceum, Escherichia coli, and Pseudomonas aeruginosa (P. aeruginosa)), and five fungal species (Candida albicans, Mucor hiemalis, Rhodotorula glutinis, Schizosaccharomyces pombe, and Wickerhamomyces anomalus), utilizing established methodologies.[16],[20],[23],[24] Methanol served as the negative control with a volume of 20 μL, while the choice of positive controls was tailored to the specific organism under investigation. For bacterial strains, oxytetracycline, ciprofloxacin, kanamycin, and gentamicin were employed as references for B. subtilis, A. baumannii, M. smegmatis, and P. aeruginosa, respectively; nystatin was the standard for all fungi. The cytotoxicity of compounds was assessed on L929 mouse fibroblast cells and KB3.1 human endocervical adenocarcinoma cells using an MTT assay. Epothilone B acted as the positive control in these experiments. Additionally, the nematicidal potential was evaluated using Caenorhabditis elegans in a 48-well flat-bottom plate, with compounds tested at concentrations of 100, 50, and 10 μg mL^–1. Samples were dissolved in methanol and added to the wells and then dried using a nitrogen stream. Subsequently, 300 μL of a suspension containing 1,000 nematodes/mL was added to the samples and incubated for 18 h at 23 °C and 150 rpm. Ivermectin, at a concentration of 1 μg mL^–1, served as the positive control, and methanol was used as the negative control. This assay was executed according to the procedures outlined by Phutthacharoen et al.[23]

[1] = test system: Chromobacterium violaceum; assay: Antimicrobial activity (MIC), serial dilution; assay type: cell-based
Procedure: as §1, with “The biological activity of isolated compounds (1, 2, 4, and 5) was assessed against different fungi, bacteria, cell lines, Caenorhabditis elegans, and Chikungunya virus. The evaluation” for “The evaluation”

Escherichia coli = assay: Antimicrobial activity (MIC), serial dilution; assay type: cell-based
Procedure: as §1, with “The biological activity of isolated compounds (1, 2, 4, and 5) was assessed against different fungi, bacteria, cell lines, Caenorhabditis elegans, and Chikungunya virus. The evaluation” for “The evaluation”

Pseudomonas aeruginosa = assay: Antimicrobial activity (MIC), serial dilution; assay type: cell-based
Procedure: as §1, with “The biological activity of isolated compounds (1, 2, 4, and 5) was assessed against different fungi, bacteria, cell lines, Caenorhabditis elegans, and Chikungunya virus. The evaluation” for “The evaluation”

Staphylococcus aureus = assay: Antimicrobial activity (MIC), serial dilution; assay type: cell-based
Procedure: as §1, with “The biological activity of isolated compounds (1, 2, 4, and 5) was assessed against different fungi, bacteria, cell lines, Caenorhabditis elegans, and Chikungunya virus. The evaluation” for “The evaluation”

Bacillus subtilis = assay: Antimicrobial activity (MIC), serial dilution; assay type: cell-based
Procedure: as §1

[2] = test system: KB3.1 human endocervical adenocarcinoma cells; assay: Cytotoxicity, MTT assay; assay type: cell-based; parameters: key: -: No effect on cell lines; details: Human endocervical adenocarcinoma (KB3.1)
Procedure: as §1

[3] = test system: L929 mouse fibroblast cells; assay: Cytotoxicity, MTT assay; assay type: cell-based; parameters: key: -: No effect on cell lines
Procedure: as §1

Candida albicans = assay: Antimicrobial activity (MIC), serial dilution; assay type: cell-based
Procedure: as §1, with “The biological activity of isolated compounds (1, 2, 4, and 5) was assessed against different fungi, bacteria, cell lines, Caenorhabditis elegans, and Chikungunya virus. The evaluation” for “The evaluation”

Mucor hiemails = assay: Antimicrobial activity (MIC), serial dilution; assay type: cell-based
Procedure: as §1, with “The biological activity of isolated compounds (1, 2, 4, and 5) was assessed against different fungi, bacteria, cell lines, Caenorhabditis elegans, and Chikungunya virus. The evaluation” for “The evaluation”

Mycobacterium smegmatis = assay: Antimicrobial activity (MIC), serial dilution; assay type: cell-based
Procedure: as §1, with “The biological activity of isolated compounds (1, 2, 4, and 5) was assessed against different fungi, bacteria, cell lines, Caenorhabditis elegans, and Chikungunya virus. The evaluation” for “The evaluation”

Pichia anomala = assay: Antimicrobial activity (MIC), serial dilution; assay type: cell-based
Procedure: as §1, with “The biological activity of isolated compounds (1, 2, 4, and 5) was assessed against different fungi, bacteria, cell lines, Caenorhabditis elegans, and Chikungunya virus. The evaluation” for “The evaluation”

Rhodotorula glutinis = assay: Antimicrobial activity (MIC), serial dilution; assay type: cell-based
Procedure: as §1, with “The biological activity of isolated compounds (1, 2, 4, and 5) was assessed against different fungi, bacteria, cell lines, Caenorhabditis elegans, and Chikungunya virus. The evaluation” for “The evaluation”

[4] = test system: Schizosaccharomyces pombe; assay: Antimicrobial activity (MIC), serial dilution; assay type: cell-based
Procedure: as §1, with “The biological activity of isolated compounds (1, 2, 4, and 5) was assessed against different fungi, bacteria, cell lines, Caenorhabditis elegans, and Chikungunya virus. The evaluation” for “The evaluation”

Caenorhabditis elegans = assay: Nematicidal activity; assay type: in vivo; details: 23 °C, 150 rpm
Procedure: as §1

[5] = read-out: MIC, positive control
[6] = C. elegans N2, 10 µg mL-1, 18 h, < 0: less active than the corresponding negative control
[7] = C. elegans N2, 50 µg mL-1, 18 h, < 0: less active than the corresponding negative control
[8] = C. elegans N2, 100 µg mL-1, 18 h, < 0: less active than the corresponding negative control

With `O=C(O)c1cn(C2CC2)c2cc(N3CCNCC3)c(F)cc2c1=O` [Ciprofloxacin, reference compound] the MIC (Acinetobacter baumanii; Acinetobacter baumannii, read-out: MIC, positive control) was 0.52 µg/mL (≈ 1.57 µM).

In the case of `CNC(C)C1CCC(N)C(OC2C(N)CC(N)C(OC3OCC(C)(O)C(NC)C3O)C2O)O1` (stereo not drawn) [Gentamycin, reference compound], the MIC [1, 5] is reported as 1.7 µg/mL (≈ 3.56 µM), the MIC (Escherichia coli; [5]) is reported as 0.42 µg/mL (≈ 0.879 µM) and the MIC (Pseudomonas aeruginosa; [5]) is reported as 0.21 µg/mL (≈ 0.44 µM). It also gave an MIC (Staphylococcus aureus; [5]) of 0.21 µg/mL (≈ 0.44 µM).

`CN(C)[C@@H]1C(O)=C(C(N)=O)C(=O)[C@@]2(O)C(O)=C3C(=O)c4c(O)cccc4[C@@](C)(O)[C@H]3[C@H](O)[C@@H]12` [Oxytetracycline, reference compound] was tested, and the MIC (Bacillus subtilis; [5]) was 16.6 µg/mL (≈ 36.1 µM).

“Ac-D-Trp-D-Ala^1-D-Ala^2-L-Phe [Compound 4]” was tested, and the “Cytotoxicity IC50” value [2] was “-”, the “Cytotoxicity IC50” value [3] was “-” and the MIC (Candida albicans) was “- (No inhibition up to 67 µg/mL)”. For the same compound, the MIC [1] was “- (No inhibition up to 67 µg/mL)”, the MIC (Escherichia coli) was “- (No inhibition up to 67 µg/mL)” and the MIC (Mucor hiemails) was “- (No inhibition up to 67 µg/mL)”. The MIC (Mycobacterium smegmatis) was “- (No inhibition up to 67 µg/mL)”, the MIC (Pichia anomala) was “- (No inhibition up to 67 µg/mL)” and the MIC (Pseudomonas aeruginosa) was “- (No inhibition up to 67 µg/mL)”. For the same compound, the MIC (Rhodotorula glutinis) was “- (No inhibition up to 67 µg/mL)”, the MIC [4] was “- (No inhibition up to 67 µg/mL)” and the MIC (Staphylococcus aureus) was “- (No inhibition up to 67 µg/mL)”. For the same compound, the MIC (Acinetobacter baumanii) was “- (No inhibition up to 67 µg/mL)”, the MIC (Bacillus subtilis) was “- (No inhibition up to 67 µg/mL)” and the “Corrected Mortality (%)” value (Caenorhabditis elegans; [6]) was 0.7 ± 2.0%. For the same compound, the “Corrected Mortality (%)” value (Caenorhabditis elegans; [7]) was 0.1 ± 2.2% and the “Corrected Mortality (%)” value (Caenorhabditis elegans; [8]) was less than 0%.

With Ac-D-Trp-D-Leu-D-Ala [Compound 5] the “Cytotoxicity IC50” value [2] was “-”, the “Cytotoxicity IC50” value [3] was “-” and the MIC (Candida albicans) was “- (No inhibition up to 67 µg/mL)”. For the same compound, the MIC [1] was “- (No inhibition up to 67 µg/mL)”, the MIC (Escherichia coli) was “- (No inhibition up to 67 µg/mL)” and the MIC (Mucor hiemails) was “- (No inhibition up to 67 µg/mL)”. The MIC (Mycobacterium smegmatis) was “- (No inhibition up to 67 µg/mL)”, the MIC (Pichia anomala) was “- (No inhibition up to 67 µg/mL)” and the MIC (Pseudomonas aeruginosa) was “- (No inhibition up to 67 µg/mL)”. The MIC (Rhodotorula glutinis) was “- (No inhibition up to 67 µg/mL)”, the MIC [4] was “- (No inhibition up to 67 µg/mL)” and the MIC (Staphylococcus aureus) was “- (No inhibition up to 67 µg/mL)”. The MIC (Acinetobacter baumanii) was “- (No inhibition up to 67 µg/mL)”, the MIC (Bacillus subtilis) was “- (No inhibition up to 67 µg/mL)” and the “Corrected Mortality (%)” value (Caenorhabditis elegans; [6]) was less than 0%. The “Corrected Mortality (%)” value (Caenorhabditis elegans; [7]) was 0.5 ± 1.1% and the “Corrected Mortality (%)” value (Caenorhabditis elegans; [8]) was less than 0%.

With Ac-D-Trp-D-Leu-D-Ala-L-Phe [Compound 2] the “Cytotoxicity IC50” value [2] was “-”, the “Cytotoxicity IC50” value [3] was “-” and the MIC (Candida albicans) was “- (No inhibition up to 67 µg/mL)”. For the same compound, the MIC [1] was “- (No inhibition up to 67 µg/mL)”, the MIC (Escherichia coli) was “- (No inhibition up to 67 µg/mL)” and the MIC (Mucor hiemails) was “- (No inhibition up to 67 µg/mL)”. For the same compound, the MIC (Mycobacterium smegmatis) was “- (No inhibition up to 67 µg/mL)”, the MIC (Pichia anomala) was “- (No inhibition up to 67 µg/mL)” and the MIC (Pseudomonas aeruginosa) was “- (No inhibition up to 67 µg/mL)”. The MIC (Rhodotorula glutinis) was “- (No inhibition up to 67 µg/mL)”, the MIC [4] was “- (No inhibition up to 67 µg/mL)” and the MIC (Staphylococcus aureus) was “- (No inhibition up to 67 µg/mL)”. For the same compound, the MIC (Acinetobacter baumanii) was “- (No inhibition up to 67 µg/mL)”, the MIC (Bacillus subtilis) was “- (No inhibition up to 67 µg/mL)” and the “Corrected Mortality (%)” value (Caenorhabditis elegans; [6]) was less than 0%. For the same compound, the “Corrected Mortality (%)” value (Caenorhabditis elegans; [7]) was less than 0% and the “Corrected Mortality (%)” value (Caenorhabditis elegans; [8]) was less than 0%.

With “Ac-D-Trp-D-Leu^1-D-Leu^2-L-Phe [Compound 1]” the “Cytotoxicity IC50” value [2] was “-”, the “Cytotoxicity IC50” value [3] was “-” and the MIC (Candida albicans) was “- (No inhibition up to 67 µg/mL)”. The MIC [1] was “- (No inhibition up to 67 µg/mL)”, the MIC (Escherichia coli) was “- (No inhibition up to 67 µg/mL)” and the MIC (Mucor hiemails) was “- (No inhibition up to 67 µg/mL)”. For the same compound, the MIC (Mycobacterium smegmatis) was “- (No inhibition up to 67 µg/mL)”, the MIC (Pichia anomala) was “- (No inhibition up to 67 µg/mL)” and the MIC (Pseudomonas aeruginosa) was “- (No inhibition up to 67 µg/mL)”. The MIC (Rhodotorula glutinis) was “- (No inhibition up to 67 µg/mL)”, the MIC [4] was “- (No inhibition up to 67 µg/mL)” and the MIC (Staphylococcus aureus) was “- (No inhibition up to 67 µg/mL)”. The MIC (Acinetobacter baumanii) was “- (No inhibition up to 67 µg/mL)”, the MIC (Bacillus subtilis) was “- (No inhibition up to 67 µg/mL)” and the “Corrected Mortality (%)” value (Caenorhabditis elegans; [6]) was less than 0%. For the same compound, the “Corrected Mortality (%)” value (Caenorhabditis elegans; [7]) was less than 0% and the “Corrected Mortality (%)” value (Caenorhabditis elegans; [8]) was less than 0%.

Ivermectin [reference compound] was tested, and the “Corrected Mortality (%)” value (Caenorhabditis elegans; C. elegans N2, 1 µg mL-1, 18 h) was 96.2 ± 2.7%.

Source: article PMC11097168, “Laburnicotides A–F: Acyclic N-Acetyl Oligopeptides from the Nematode-Cyst-Associated Fungus Laburnicola nematophila” (ACS Omega, 2024)
